Laboratory results reported in patent publication US11415579B2, “Assay for measuring a rate of reaction between a target and a ligand candidate” (Imperial College Innovations Ltd., priority 2016, dated 2022).

Legend:
[1] = Kinetic thiol consumption assay with model thiol glutathione; format: physicochemical; design: Rate constant with glutathione (k(GSH)): unit not given here; conditions: for Rate constant with glutathione (k(GSH)): 500 μM ligand, 5 μM thiol, phosphate buffer pH 8; for Rate constant with Glutathione: Protein: Glutathione, cysteine position NA, in h-1
Summary of the method: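 Rate constants for acrylamide reaction with 5 μM glutathione come from first-order exponential fits of normalized fluorescence decay (ex 380, em 470 nm). Reactions run in degassed phosphate buffer at pH 8 containing TCEP beads, room temperature.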

Cdk2(R122C) (C177A) = target: T1, Cdk2(R122C) (C177A) (Homo sapiens, UniProt P24941, C177A/R122C); test: Kinetic thiol consumption assay with Cdk2 mutant R122C; format: binding; design: key to Rate enhancement, Cdk2 R122C: rate constant with Cdk2 ÷ rate constant with model thiol (fold); conditions: additional mutation C177A; for Rate constant with Cdk2 R122C: Protein: Cdk2, cysteine position R122C, in h-1
T1 construct: poly-histidine; made in house; host or cells: E. coli
Summary of the method: (§1)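 Read-out is fluorescence at 380/470 nm, taken after 1 h at room temperature and normalized to a DMSO/thiol-only control over time. Thiol (5 μM Cdk2 mutant or model thiol) was in degassed pH 8 phosphate buffer with 2% v/v TCEP beads. Acrylamide rate constants for Cdk2 were divided by those with model thiol.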

Cdk2(S276C) (C177A) = target: T2, Cdk2(S276C) (C177A) (Homo sapiens, UniProt P24941, C177A/S276C); test: Kinetic thiol consumption assay with Cdk2 mutant S276C; format: binding; design: key to Rate enhancement, Cdk2 S276C: rate constant with Cdk2 ÷ rate constant with model thiol (fold); conditions: additional mutation C177A; for Rate constant with Cdk2 S276C: Protein: Cdk2, cysteine position S276C, in h^-1
T2 construct: poly-histidine; made in house; host or cells: E. coli
Summary of the method: as §1

Cdk2(T182C) (C177A) = target: T3, Cdk2(T182C) (C177A) (Homo sapiens, UniProt P24941, C177A/T182C); test: Kinetic thiol consumption assay with Cdk2 mutant T182C; format: binding; design: key to Rate enhancement, Cdk2 T182C: rate constant with Cdk2 ÷ rate constant with model thiol (fold); conditions: additional mutation C177A; for Rate constant with Cdk2 T182C: Protein: Cdk2, cysteine position T182C, in h^-1
T3 construct: poly-histidine; made in house; host or cells: E. coli
Summary of the method: as §1

[2] = target: T4, human cyclin-dependent kinase 2 (Cdk2) (Homo sapiens, UniProt P24941); test: Kinetic thiol consumption assay with wild type Cdk2 (C177); format: binding; design: key to Rate enhancement, Cdk2 WT: k(Cdk2) divided by k(model thiol); Rate constant with Cdk2 (k(Cdk2)): unit not given here; conditions: for Rate constant with Cdk2 (k(Cdk2)): 500 μM ligand, 5 μM thiol, phosphate buffer pH 8; for Rate enhancement, Cdk2 WT: no additional mutations; for Rate constant with Cdk2 WT: Protein: Cdk2, cysteine position WT, in h^-1; for k(Cdk2)/k(Cdk2_mut) rate enhancement: model thiol Cdk2[C177A, F80C, K278C]; for k(Cdk2)/k(GSH) rate enhancement: model thiol glutathione
T4 construct: poly-histidine; made in house; host or cells: E. coli
Summary of the method: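 Thiol 5 μM (Cdk2 or model thiol), degassed phosphate buffer pH 8, TCEP beads 2% v/v. Plates incubated 1 h RT, ex/em 380/470 nm. First-order decay fit → rate constant; ratio Cdk2/model thiol = rate enhancement.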

Cdk2(S181C) (C177A) = target: T5, Cdk2(S181C) (C177A) (Homo sapiens, UniProt P24941, C177A/S181C); test: Kinetic thiol consumption assay with Cdk2 mutant S181C; format: binding; design: key to Rate enhancement, Cdk2 S181C: rate constant with Cdk2 ÷ rate constant with model thiol (fold); conditions: additional mutation C177A; for Rate constant with Cdk2 S181C: Protein: Cdk2, cysteine position S181C, in h^-1
T5 construct: poly-histidine; made in house; host or cells: E. coli
Summary of the method: as §1

Cdk2(C177A, F80C) = target: T6, Cdk2(C177A, F80C) (Homo sapiens, UniProt P24941, C177A/F80C); test: Kinetic thiol consumption assay with Cdk2 mutant F80C, incl. kobs versus concentration (Kd, k2); format: binding; design: key to Rate enhancement, Cdk2 F80C: Cdk2 rate constant divided by model-thiol rate constant; conditions: additional mutation C177A; for Rate constant with Cdk2 F80C: Protein: Cdk2, cysteine position F80C, in h^-1
T6 construct: poly-histidine; made in house; host or cells: E. coli
Summary of the method: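 His-tagged Cdk2(C177A/F80C) from E. coli or model thiol, 5 μM in degassed phosphate buffer pH 8 with TCEP beads, reacted with acrylamide ligands; fluorescence (ex/em 380/470 nm) normalized to DMSO control and fitted to first-order decay for kobs. Kd and k2 obtained from hyperbolic fit of kobs versus ligand concentration.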

Cdk2[C177A, F80C, K278C] = target: T7, Cdk2[C177A, F80C, K278C] (Homo sapiens, UniProt P24941, C177A/F80C/K278C); test: Kinetic thiol consumption assay with mutant Cdk2 as model thiol; format: binding; design: unit not given here; conditions: 500 μM ligand, 5 μM thiol, phosphate buffer pH 8
T7 construct: poly-histidine; made in house; host or cells: E. coli
Summary of the method: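 First-order rate constants were derived by exponential-decay fitting of DMSO/thiol-normalized fluorescence (380/470 nm) over time at room temperature. Thiol was 5 μM E. coli-expressed His-tagged Cdk2 mutant C177A/F80C/K278C in degassed pH 8 phosphate buffer containing 2% v/v TCEP beads.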

Cdk2(N272C) (C177A) = target: T8, Cdk2(N272C) (C177A) (Homo sapiens, UniProt P24941, C177A/N272C); test: Kinetic thiol consumption assay with Cdk2 mutant N272C; format: binding; design: key to Rate enhancement, Cdk2 N272: rate constant with Cdk2 ÷ rate constant with model thiol (fold); conditions: for Rate enhancement, Cdk2 N272: Cdk2 N272, additional mutation C177A; for Rate constant with Cdk2 N272C: Protein: Cdk2, cysteine position N272C, additional mutation C177A, in h^-1
T8 construct: poly-histidine; made in house; host or cells: E. coli
Summary of the method: as §1

Cdk2(H71C) (C177A) = target: T9, Cdk2(H71C) (C177A) (Homo sapiens, UniProt P24941, C177A/H71C); test: Kinetic thiol consumption assay with Cdk2 mutant H71C; format: binding; design: key to Rate enhancement, Cdk2 H71C: rate constant with Cdk2 ÷ rate constant with model thiol (fold); conditions: additional mutation C177A; for Rate constant with Cdk2 H71C: Protein: Cdk2, cysteine position H71C, in h^-1
T9 construct: poly-histidine; made in house; host or cells: E. coli
Summary of the method: as §1

SMILES | Rate constant with glutathione (k(GSH)) [1] | Rate constant with Glutathione [1] | Rate enhancement, Cdk2 R122C (Cdk2(R122C) (C177A)) | Rate constant with Cdk2 R122C (Cdk2(R122C) (C177A)) | Rate enhancement, Cdk2 S276C (Cdk2(S276C) (C177A)) | Rate constant with Cdk2 S276C (Cdk2(S276C) (C177A)) | Rate enhancement, Cdk2 T182C (Cdk2(T182C) (C177A)) | Rate constant with Cdk2 T182C (Cdk2(T182C) (C177A)) | Rate constant with Cdk2 (k(Cdk2)) [2] | Rate enhancement, Cdk2 WT [2] | Rate constant with Cdk2 WT [2] | k(Cdk2)/k(Cdk2_mut) rate enhancement [2] | k(Cdk2)/k(GSH) rate enhancement [2] | Rate enhancement, Cdk2 S181C (Cdk2(S181C) (C177A)) | Rate constant with Cdk2 S181C (Cdk2(S181C) (C177A)) | Rate enhancement, Cdk2 F80C (Cdk2(C177A, F80C)) | Rate constant with Cdk2[C177A, F80C, K278C] (k(Cdk2_mut)) (Cdk2[C177A, F80C, K278C]) | Rate enhancement, Cdk2 N272 (Cdk2(N272C) (C177A)) | Rate constant with Cdk2 N272C (Cdk2(N272C) (C177A)) | Rate enhancement, Cdk2 H71C (Cdk2(H71C) (C177A)) | other results
C=CC(=O)N1CCC2(CCCCCC2)C1 [CA-093] | 0.0074 | 0.01326 | 0.311 | 0.004124 | 1.327 | 0.0176 | 4.072 | 0.05399 | 0.00196 | 0.2573 | 0.003412 | 0.3873 | 0.2651 | 0.776 | 0.01029 | 1.271 | 0.00507 | 0.4207 | 0.005578 | 0.5753 | Rate constant with Cdk2 F80C (Cdk2(C177A, F80C)): 0.01686; Rate constant with Cdk2 H71C (Cdk2(H71C) (C177A)): 0.007628
C=CC(=O)NC1C2C3CCC(C3)C12 (stereo not shown) [CA-097] | 0.00533 | 0.009838 | 0.3499 | 0.003442 | 0.8141 | 0.008009 | 1.447 | 0.01424 | 0.00152 | 0.1544 | 0.001519 | 0.3735 | 0.2854 | 0 |  | 0.1887 | 0.00407 | 0.5898 | 0.005802 | 0.1566 | Rate constant with Cdk2 F80C (Cdk2(C177A, F80C)): 0.001856; Rate constant with Cdk2 H71C (Cdk2(H71C) (C177A)): 0.001541
C=CC(=O)N1CC2CCCCCCC21 (stereo not shown) [CA-098] | 0.01614 | 0.02562 | 0.3481 | 0.008918 | 3.196 | 0.08188 | 4.766 | 0.1221 | 0.01499 | 0.9446 | 0.0242 | 2.745 | 0.9287 | 0.8872 | 0.02273 | 0.5929 | 0.00546 | 6.698 | 0.1716 | 0.8002 | Rate constant with Cdk2 F80C (Cdk2(C177A, F80C)): 0.01519; Rate constant with Cdk2 H71C (Cdk2(H71C) (C177A)): 0.0205
C=CC(=O)N1CCC(c2nnc3n2CCC3)CC1 [CA-106] | 0.00227 | 0.003956 | 0.2819 | 0.001115 | 0.7543 | 0.002984 | 3.971 | 0.01571 | 0.00145 | 0.5857 | 0.002317 | 0.9576 | 0.6367 | 1.69 | 0.006686 | 0 | 0.00151 | 3.031 | 0.01199 | 0 | 
C=CC(=O)NCC1CCCN1S(=O)(=O)c1ccc(C)cc1 (stereo not shown) [CA-118] | 0.0028 | 0.006004 | 0.3071 | 0.001844 | 0.4087 | 0.002454 | 0 |  | 0.00698 | 1.749 | 0.0105 | 1.682 | 2.491 | 4.792 | 0.02877 | 0.6003 | 0.00415 | 61.33 | 0.3682 | 0.1972 | Rate constant with Cdk2 F80C (Cdk2(C177A, F80C)): 0.003604; Rate constant with Cdk2 H71C (Cdk2(H71C) (C177A)): 0.001184
